Key:
Rice = assay: Test F over-the-top soil/foliage treatment; assay type: in vivo; conditions: soil/foliage spray; 0.06 kg/ha; ~14 days
Method: (§1) The test chemicals, dissolved in a non-phytotoxic solvent, were applied in an overall spray to the foliage and surrounding […] of selected plant species. […] Approximately fourteen days after treatment, all species were visually compared to untreated controls and rated for response to treatment.
(§2) All plant species were seeded in Woodstown sandy loam soil and grown in a greenhouse. The following species were grown in soil contained in plastic pots (25 cm diameter by 13 cm deep): soybeans, cotton, alfalfa, corn, rice, wheet, sorghum, velvetleaf (Abutilon theophrasti), sesbania (Sesbania exaltata), Cassia (Cassia tora), morningglory (Ipomoea hederacea), jimsonweed (Datura stramonium), cocklebur (Xanthium pensylvanicum), crabgrass (Digitaria spp.), nutsedge (Cyperus rotundus), barnyardgrass (Echinochloa crusgalli), giant foxtail (Setaria faberii) and wild oats (Avena fatua). The following species were grown in soil in a paper cup (12 cm diameter by 13 cm deep): sunflower, sugarbeets, and mustard. All plants were sprayed approximately 14 days after planting.

Corn [1] = assay: Test F over-the-top soil/foliage treatment; assay type: in vivo; conditions: soil/foliage spray; 0.06 kg/ha; ~14 days
Method: as §1, §2

Soybeans = assay: Test F over-the-top soil/foliage treatment; assay type: in vivo; conditions: soil/foliage spray; 0.06 kg/ha; ~14 days
Method: as §1, §2

Wheat [2] = assay: Test F over-the-top soil/foliage treatment; assay type: in vivo, wheet; set-up: scale not given here; conditions: soil/foliage spray, ~14 days
Method: as §1, §2

Barnyardgrass [3] = assay: Test F over-the-top soil/foliage treatment; assay type: in vivo, Echinochloa crusgalli; set-up: scale not given here; conditions: soil/foliage spray; 0.06 kg/ha; ~14 days
Method: as §1, §2

Nutsedge [4] = assay: Test B pre-emergence on Fallsington silt loam; assay type: in vivo, Cyperus rotundus; conditions: 0.03 kg/ha, 28 days
From the text: (§3) Two plastic bulb pans were filled with fertilized and limed Fallsington silt loam soil. One pan was planted with corn, sorghum, Kentucky bluegrass and several grassy weeds. The other pan was planted with cotton, soybeans, purple nutsedge (Cyperus rotundus), and several broadleaf weeds. The following grassy and broadleaf weeds were planted: crabgrass (Digitaria sanguinalis), barnyardgrass (Echinochloa crusgalli), wild oats (Avena fatua), johnsongrass (Sorghum halepense), dallisgrass (Paspalum dilatatum), giant foxtail (Setaria faberii), cheatgrass (Bromus secalinus), mustard (Brassica arvensis), cocklebur (Xanthium pensylvanicum), pigweed (Amaranthus retroflexus), morningglory (Ipomoea hederacea), cassia (Cassia tora), teaweed (Sida spinosa), velvetleaf (Abutilon theophrasti), and jimsonweed (Datura stramonium). A 12.5 cm diameter plastic pot was also filed with prepared soil and planted with rice and wheat. Another 12.5 cm pot was planted with sugarbeets. The above four containers were treated pre- emergence with several test compounds within the scope of the invention.
(§4) Twenty-eight days after treatment, the plants were evaluated and visually rated for response to the chemical treatments utilizing the rating system described previously for Test A. The data are summarized in Table B.

Morningglory [5] = assay: Test F over-the-top soil/foliage treatment; assay type: in vivo, Ipomoea hederacea; conditions: soil/foliage spray; 0.06 kg/ha; ~14 days
Method: as §1, §2

Nutsedge [6] = assay: Test F over-the-top soil/foliage treatment; assay type: in vivo, Cyperus rotundus; set-up: scale not given here; conditions: soil/foliage spray, ~14 days
Method: as §1, §2

Jimsonweed = assay: Test F over-the-top soil/foliage treatment; assay type: in vivo, Datura stramonium; conditions: soil/foliage spray; 0.06 kg/ha; ~14 days
Method: as §1, §2

Cocklebur = assay: Test B pre-emergence on Fallsington silt loam; assay type: in vivo, Xanthium pensylvanicum; conditions: 28 days
From the text: as §3, §4

Mustard = assay: Test B pre-emergence on Fallsington silt loam; assay type: in vivo, Brassica arvensis; conditions: 28 days
From the text: as §3, §4

Johnsongrass = assay: Test B pre-emergence on Fallsington silt loam; assay type: in vivo, Sorghum halepense; set-up: scale not given here; conditions: 0.12 kg/ha, 28 days
From the text: as §3, §4

Sesbania = assay: Test F over-the-top soil/foliage treatment; assay type: in vivo, Sesbania exaltata; set-up: scale not given here; conditions: soil/foliage spray, ~14 days
Method: as §1, §2

Pigweed = assay: Test B pre-emergence on Fallsington silt loam; assay type: in vivo, Amaranthus retroflexus; conditions: 0.03 kg/ha, 28 days
From the text: as §3, §4

Morningglory [7] = assay: Test B pre-emergence on Fallsington silt loam; assay type: in vivo, Ipomoea hederacea; conditions: 0.03 kg/ha, 28 days
From the text: as §3, §4

Giant Foxtail [8] = assay: Test B pre-emergence on Fallsington silt loam; assay type: in vivo, Setaria faberii; conditions: 0.12 kg/ha, 28 days
From the text: as §3, §4

Crabgrass = assay: Test F over-the-top soil/foliage treatment; assay type: in vivo, Digitaria spp.; set-up: scale not given here; conditions: soil/foliage spray; 0.06 kg/ha; ~14 days
Method: as §1, §2

Barnyardgrass [9] = assay: Test B pre-emergence on Fallsington silt loam; assay type: in vivo, Echinochloa crusgalli; conditions: 0.12 kg/ha, 28 days
From the text: as §3, §4

Sorghum [10] = assay: Test B pre-emergence on Fallsington silt loam; assay type: in vivo; conditions: 0.03 kg/ha, 28 days
From the text: as §3, §4

Wild Oats = assay: Test F over-the-top soil/foliage treatment; assay type: in vivo, Avena fatua; set-up: scale not given here; conditions: soil/foliage spray; 0.06 kg/ha; ~14 days
Method: as §1, §2

Ky. bluegrass = assay: Test B pre-emergence on Fallsington silt loam; assay type: in vivo, Kentucky bluegrass; set-up: scale not given here; conditions: 0.12 kg/ha, 28 days
From the text: as §3, §4

Velvetleaf = assay: Test F over-the-top soil/foliage treatment; assay type: in vivo, Abutilon theophrasti; conditions: soil/foliage spray; 0.015 kg/ha; ~14 days
Method: as §1, §2

Corn [11] = assay: Test B pre-emergence on Fallsington silt loam; assay type: in vivo; set-up: scale not given here; conditions: 0.12 kg/ha, 28 days
From the text: as §3, §4

Sugarbeets = assay: Test B pre-emergence on Fallsington silt loam; assay type: in vivo; set-up: scale not given here; conditions: 28 days
From the text: as §3, §4

Wheat [12] = assay: Test B pre-emergence on Fallsington silt loam; assay type: in vivo; set-up: scale not given here; conditions: 0.03 kg/ha, 28 days
From the text: as §3, §4

Wheat [13] = assay: Test C pre-emergence on Fallsington silt loam soil; assay type: in vivo; conditions: 0.06 kg/ha, 28 days
From the text: The high herbicidal activity of two of the compounds from within the scope of the invention is evident from the results obtained in this test. The experiment concerned pre-emergence applications on soil. The containers used were 25 cm diameter plastic pots filled with Fallsington silt loam. One set of pots was planted to weeds, the seeds of which were uniformly mixed with the top 1.2 cm layer of soil. The species selected were: johnsongrass (Sorghum halepense), barnyardgrass (Echinochloa crusgalli), crabgrass (Digitaria sanguinalis), giant foxtail (Setaria faberii), velvetleaf (Abutilon theophrasti), jimsonweed (Datura stramonium), mustard (Brassica arvensis), and pigweed (Amaranthus retroflexus). Another set of pots were planted to the following crops with from one to four species per pot: corn (planting depth 3.7 cm), cotton, soybeans, sunflower, Clinton oats, wheat, Black Valentine beans, rice, sorghum, peas, flax, and peanuts (all at 2.5 cm depth), cucumbers, cabbage, alfalfa, safflower, sugarbeets, tomato, spinach, barley, and Kentucky bluegrass (all at 1.2 cm depth). Immediately after planting, the test chemical was applied to the soil surfaces dissolved in a non-phytotoxic solvent. One pot from the weed phase and one of each of the crop species were left untreated for the purpose of comparison. The treated and untreated pots were promptly watered with approximatley 4 mm of simultated rainfall and then held in a greenhouse for several weeks. Visual weed and crop response ratings were made 28 days after treatment utilizing the rating system as described above for Test A. The data are given in Table C.

Giant Foxtail [14] = assay: Test F over-the-top soil/foliage treatment; assay type: in vivo, Setaria faberii; set-up: scale not given here; conditions: soil/foliage spray; 0.06 kg/ha; ~14 days
Method: as §1, §2

Sorghum [15] = assay: Test F over-the-top soil/foliage treatment; assay type: in vivo; set-up: scale not given here; conditions: soil/foliage spray; 0.06 kg/ha; ~14 days
Method: as §1, §2

Alfalfa = assay: Test F over-the-top soil/foliage treatment; assay type: in vivo; set-up: scale not given here; conditions: soil/foliage spray, ~14 days
Method: as §1, §2

With `COc1cc(C)nc(NC(=O)NS(=O)(=O)c2ccccc2OS(C)(=O)=O)n1` [Compound 2, 2-Hydroxy-N-[(4-methoxy-6-methylpyrimidin-2-yl)aminocarbonyl]benzenesulfonamide, methanesulfonate] the Rice response rating (Rice) was 10C, the Corn response rating (Corn [1]) was 10C and the Soybeans response rating (Soybeans) was 9C. The Wheat response rating (Wheat [2]; 0.015 kg/ha) was 1C, the Wheat response rating (Wheat [2]; 0.06 kg/ha) was 9C and the Barnyardgrass response rating (Barnyardgrass [3]) was 10C. The Nutsedge response rating (Nutsedge [4]) was 6G, the Morningglory response rating (Morningglory [5]) was 10C and the Nutsedge response rating (Nutsedge [6]; 0.015 kg/ha) was 2C. The Nutsedge response rating (Nutsedge [6]; 0.06 kg/ha) was 10C, the Jimsonweed response rating (Jimsonweed) was 10C and the Cocklebur response rating (Cocklebur; 0.03 kg/ha) was 5G. It also gave a Cocklebur response rating (Cocklebur; 0.12 kg/ha) of 10C, a Mustard response rating (Mustard; 0.03 kg/ha) of 10C and a Mustard response rating (Mustard; 0.12 kg/ha) of 10C. The Johnsongrass response rating (Johnsongrass) was 10C, the Sesbania response rating (Sesbania; 0.015 kg/ha) was 9C and the Sesbania response rating (Sesbania; 0.06 kg/ha) was 10C. The Pigweed response rating (Pigweed) was 7G, the Morningglory response rating (Morningglory [7]) was 7G and the “Giant Foxtail response rating” value (Giant Foxtail [8]) was 10C. For the same compound, the Crabgrass response rating (Crabgrass) was 10C, the Barnyardgrass response rating (Barnyardgrass [9]) was 10C and the Sorghum response rating (Sorghum [10]) was 10C. For the same compound, the “Wild Oats response rating” value (Wild Oats) was 10C, the “Ky. bluegrass response rating” value (Ky. bluegrass) was 10C and the Velvetleaf response rating (Velvetleaf) was 5G. The Corn response rating (Corn [11]) was 10C, the Sugarbeets response rating (Sugarbeets; 0.03 kg/ha) was 10C and the Sugarbeets response rating (Sugarbeets; 0.12 kg/ha) was 10C. The Wheat response rating (Wheat [12]) was 5G, the Wheat response rating (Wheat [13]) was 5G and the “Giant Foxtail response rating” value (Giant Foxtail [14]) was 10C. The Sorghum response rating (Sorghum [15]) was 10C, the Alfalfa response rating (Alfalfa; 0.015 kg/ha) was 7C and the Alfalfa response rating (Alfalfa; 0.06 kg/ha) was 10C.

Reference: patent EP0044212B1, “Herbicidal o-alkylsulfonyloxy- and o-alkylsulfonylamino-benzenesulfonamides” (E.I. DU PONT DE NEMOURS AND COMPANY, priority 1980, dated 1982)
